Each block holds one molecule with its values, some of them ahead of it.
Columns and labels:
[1] = molecular target: T1, Adenosine receptor A2b (Homo sapiens, UniProt P29275); assay: Displacement of [3H]DPCPX from human A2B receptor expressed in HEK293 cells; type: cell-based
T1 sequence (P29275 whole entry): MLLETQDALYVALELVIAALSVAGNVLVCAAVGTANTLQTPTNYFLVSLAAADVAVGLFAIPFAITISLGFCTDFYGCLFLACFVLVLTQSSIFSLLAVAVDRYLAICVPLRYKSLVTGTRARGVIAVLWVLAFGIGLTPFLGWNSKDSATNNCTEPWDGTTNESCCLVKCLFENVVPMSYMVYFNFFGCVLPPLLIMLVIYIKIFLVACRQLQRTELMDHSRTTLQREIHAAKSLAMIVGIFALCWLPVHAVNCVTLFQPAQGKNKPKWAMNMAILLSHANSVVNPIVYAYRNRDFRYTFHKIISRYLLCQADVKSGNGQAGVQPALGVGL

[2] = molecular target: T2, Adenosine receptor A2a (Homo sapiens, UniProt P29274); assay: Displacement of [3H]ZM-241385 from human A2A receptor expressed in HeLa cells; type: cell-based
T2 sequence (P29274 whole entry): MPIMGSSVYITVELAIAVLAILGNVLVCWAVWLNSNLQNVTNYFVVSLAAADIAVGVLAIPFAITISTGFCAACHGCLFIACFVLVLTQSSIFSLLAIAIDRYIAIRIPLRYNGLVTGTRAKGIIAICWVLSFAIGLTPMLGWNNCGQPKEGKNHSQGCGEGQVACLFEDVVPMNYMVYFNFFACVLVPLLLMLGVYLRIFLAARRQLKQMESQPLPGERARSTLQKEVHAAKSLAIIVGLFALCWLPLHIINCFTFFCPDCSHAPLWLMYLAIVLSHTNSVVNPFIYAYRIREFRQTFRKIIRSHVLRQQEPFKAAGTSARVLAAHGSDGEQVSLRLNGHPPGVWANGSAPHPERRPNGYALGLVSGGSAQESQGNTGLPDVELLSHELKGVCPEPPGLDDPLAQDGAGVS

[3] = molecular target: T2, Adenosine receptor A2a; assay: Displacement of [3H]ZM-241385 from human A2A receptor expressed in HeLa cells at 2500 nM; type: cell-based
[4] = molecular target: T3, Adenosine receptor A1 (Homo sapiens, UniProt P30542); assay: Displacement of [3H]DPCPX from human A1 receptor expressed in CHO cells; type: cell-based
T3 sequence (P30542 whole entry): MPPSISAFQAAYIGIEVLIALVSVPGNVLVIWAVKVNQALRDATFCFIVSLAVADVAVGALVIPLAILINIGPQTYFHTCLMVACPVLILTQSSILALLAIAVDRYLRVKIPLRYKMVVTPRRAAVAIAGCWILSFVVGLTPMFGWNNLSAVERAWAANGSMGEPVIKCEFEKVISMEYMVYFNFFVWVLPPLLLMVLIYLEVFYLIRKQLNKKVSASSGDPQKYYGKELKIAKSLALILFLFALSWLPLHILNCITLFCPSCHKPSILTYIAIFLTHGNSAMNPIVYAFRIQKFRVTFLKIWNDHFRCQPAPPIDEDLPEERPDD

[5] = molecular target: T4, Adenosine receptor A1 (Homo sapiens) (UniProt P30542); assay: Displacement of [3H]DPCPX from human A1 receptor expressed in CHO cells at 10000 nM; type: cell-based
T4 sequence (whole entry): T3 sequence (P30542 whole entry)

[6] = molecular target: T5, Adenosine receptor A3 (Homo sapiens, UniProt P0DMS8); assay: Displacement of […] from human A3 receptor expressed in HeLa cells; type: cell-based
T5 sequence (P0DMS8 whole entry): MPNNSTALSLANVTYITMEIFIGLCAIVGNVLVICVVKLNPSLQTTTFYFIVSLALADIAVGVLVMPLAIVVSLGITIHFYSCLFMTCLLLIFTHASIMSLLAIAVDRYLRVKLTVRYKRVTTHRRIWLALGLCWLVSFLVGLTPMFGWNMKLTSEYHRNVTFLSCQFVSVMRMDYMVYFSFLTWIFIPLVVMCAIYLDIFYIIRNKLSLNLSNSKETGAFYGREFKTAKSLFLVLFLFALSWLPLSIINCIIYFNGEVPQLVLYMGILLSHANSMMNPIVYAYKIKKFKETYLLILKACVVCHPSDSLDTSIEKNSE

[7] = molecular target: T6, Adenosine receptor A3 (Homo sapiens) (UniProt P0DMS8); assay: Displacement of […] from human A3 receptor expressed in HeLa cells at 1000 nM; type: cell-based
T6 sequence (whole entry): T5 sequence (P0DMS8 whole entry)

[8] = molecular target: T4, Adenosine receptor A1 (Homo sapiens); assay: Displacement of [3H]DPCPX from human A1 receptor expressed in CHO cells at 1000 nM; type: cell-based
[9] = molecular target: T1, Adenosine receptor A2b; assay: Activity at human A2B receptor expressed in HEK293 cells assessed as inhibition of NECA-induced intracellular cAMP levels by ELISA; type: functional, cell-based
[10] = molecular target: T7, Adenosine receptor A2b (Mus musculus, UniProt Q60614); assay: Activity at mouse A2B receptor expressed in CHO cells assessed as inhibition of NECA-induced intracellular cAMP levels by ELISA; type: functional, cell-based
T7 sequence (Q60614 whole entry): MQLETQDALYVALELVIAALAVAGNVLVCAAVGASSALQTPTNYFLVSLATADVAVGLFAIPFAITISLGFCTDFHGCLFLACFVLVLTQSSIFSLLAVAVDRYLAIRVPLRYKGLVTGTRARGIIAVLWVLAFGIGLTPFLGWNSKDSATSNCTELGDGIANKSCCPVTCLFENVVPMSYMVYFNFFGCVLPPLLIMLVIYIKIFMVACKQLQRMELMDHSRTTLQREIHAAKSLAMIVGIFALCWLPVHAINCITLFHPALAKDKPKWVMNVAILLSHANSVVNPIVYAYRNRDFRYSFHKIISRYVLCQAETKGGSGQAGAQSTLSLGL

[11] = molecular target: T8, Adenosine receptors; A2b & A3 (Homo sapiens, UniProt P29275+P0DMS8); assay: Inhibition of NECA-induced IL6 production in human fibroblast after 24 hrs by ELISA; type: functional
T8 sequence (P29275 whole entry): T1 sequence (P29275 whole entry)
T8 sequence (P0DMS8 whole entry): T5 sequence (P0DMS8 whole entry)

[12] = molecular target: T7, Adenosine receptor A2b; assay: Inhibition of NECA-induced IL6 production in Swiss mouse fibroblasts after 24 hrs by ELISA; type: functional
[13] = Cmax in Swiss mouse at 10 mg/kg, po; type: ADME, organism-based; set-up: dose 10 mg/kg, route oral; conditions: in vivo
[14] = Cmax in Wistar rat at 10 mg/kg, po; type: ADME, organism-based; set-up: dose 10 mg/kg, route oral; conditions: in vivo
[15] = Cmax in Beagle dog at 10 mg/kg, po; type: ADME, organism-based, Canis lupus familiaris; set-up: dose 10 mg/kg, route oral; conditions: in vivo
[16] = Tmax in Swiss mouse at 10 mg/kg, po; type: ADME, organism-based; set-up: dose 10 mg/kg, route oral; conditions: in vivo
[17] = Tmax in Wistar rat at 10 mg/kg, po; type: ADME, organism-based; set-up: dose 10 mg/kg, route oral; conditions: in vivo
[18] = Tmax in Beagle dog at 10 mg/kg, po; type: ADME, organism-based, Canis lupus familiaris; set-up: dose 10 mg/kg, route oral; conditions: in vivo
[19] = AUC in Swiss mouse at 10 mg/kg, po; type: ADME, organism-based; set-up: dose 10 mg/kg, route oral; conditions: plasma
[20] = AUC in Wistar rat at 10 mg/kg, po; type: ADME, organism-based; set-up: dose 10 mg/kg, route oral; conditions: plasma
[21] = AUC in Beagle dog at 10 mg/kg, po; type: ADME, organism-based, Canis lupus familiaris; set-up: dose 10 mg/kg, route oral; conditions: plasma
[22] = Half life in Wistar rat at 1 mg/kg, iv; type: ADME, organism-based; set-up: dose 1 mg/kg, route intravenous; conditions: in vivo
[23] = Half life in Beagle dog at 1 mg/kg, iv; type: ADME, organism-based, Canis lupus familiaris; set-up: dose 1 mg/kg, route intravenous; conditions: in vivo
[24] = Mean residence time in Wistar rat at 10 mg/kg, po; type: ADME, organism-based; set-up: dose 10 mg/kg, route oral; conditions: in vivo
[25] = Mean residence time in Beagle dog at 10 mg/kg, po; type: ADME, organism-based, Canis lupus familiaris; set-up: dose 10 mg/kg, route oral; conditions: in vivo
[26] = Mean residence time in Wistar rat at 1 mg/kg, iv; type: ADME, organism-based; set-up: dose 1 mg/kg, route intravenous; conditions: in vivo
[27] = Mean residence time in Beagle dog at 1 mg/kg, iv; type: ADME, organism-based, Canis lupus familiaris; set-up: dose 1 mg/kg, route intravenous; conditions: in vivo
[28] = tested on: Rattus norvegicus; assay: Clearance in Wistar rat at 1 mg/kg, iv; type: ADME, organism-based; set-up: dose 1 mg/kg, route intravenous; conditions: in vivo
[29] = Clearance in Beagle dog at 1 mg/kg, iv; type: ADME, organism-based, Canis lupus familiaris; set-up: dose 1 mg/kg, route intravenous; conditions: in vivo
[30] = Volume of distribution at steady state in Wistar rat at 1 mg/kg, iv; type: ADME, organism-based; set-up: dose 1 mg/kg, route intravenous; conditions: in vivo, read-out: Vdss
[31] = Volume of distribution at steady state in Beagle dog at 1 mg/kg, iv; type: ADME, organism-based, Canis lupus familiaris; set-up: dose 1 mg/kg, route intravenous; conditions: in vivo, read-out: Vdss
[32] = Bioavailability in Wistar rat at 10 mg/kg, po; type: ADME, organism-based; conditions: in vivo
[33] = Bioavailability in Beagle dog at 10 mg/kg, po; type: ADME, organism-based, Canis lupus familiaris; conditions: in vivo
[34] = molecular target: Adenosine receptor A3 (Mus musculus) (UniProt Q61618); conditions: CHO, 10 uM
Adenosine receptor A3 (Mus musculus), sequence (Q61618 whole entry, looked up): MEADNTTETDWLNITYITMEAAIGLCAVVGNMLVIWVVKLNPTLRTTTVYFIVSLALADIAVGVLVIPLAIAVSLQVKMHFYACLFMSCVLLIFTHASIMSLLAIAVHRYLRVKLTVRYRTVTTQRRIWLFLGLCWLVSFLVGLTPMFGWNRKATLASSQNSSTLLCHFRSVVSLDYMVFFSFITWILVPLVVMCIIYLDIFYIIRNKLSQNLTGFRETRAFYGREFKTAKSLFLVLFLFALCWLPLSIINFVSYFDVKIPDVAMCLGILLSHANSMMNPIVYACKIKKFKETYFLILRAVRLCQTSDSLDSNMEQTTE
Description: Activity at mouse A3 receptor expressed in CHO cells assessed as inhibition of NECA-induced intracellular cAMP levels at 10 uM by ELISA

Compound: N#Cc1cncc(Nc2ncc(-c3ccncn3)c(-c3ccco3)n2)c1
- Ki [1]: 69 nM
- Ki [2]: > 2500 nM
- inhibition [3]: 37%
- Ki [4]: > 10000 nM
- inhibition [5]: 22%
- Ki [6]: > 1000 nM
- inhibition [7]: 24%

Compound: O=c1ccc(Nc2ncc(-c3ccncn3)c(-c3ccco3)n2)c[nH]1
- Ki [1]: 16 nM
- Ki [2]: > 2500 nM
- inhibition [3]: 25%
- Ki [4]: > 10000 nM
- inhibition [5]: 31%
- Ki [6]: > 1000 nM
- inhibition [7]: 15%

Compound: O=c1ccc(Nc2ncc(-c3ccncn3)c(-c3ccco3)n2)cn1CC1CC1
- Ki [1]: 119 nM
- Ki [2]: > 2500 nM
- inhibition [3]: 38.5%
- Ki [4]: > 10000 nM
- inhibition [5]: 28%
- Ki [6]: > 1000 nM
- inhibition [7]: 29%

Compound: Cn1cc(Nc2ncc(-c3ccncn3)c(-c3ccco3)n2)ccc1=O
- Ki [1]: 28 nM
- Ki [2]: > 2500 nM
- inhibition [3]: 20%
- Ki [4]: > 10000 nM
- inhibition [5]: 17%
- Ki [6]: > 1000 nM
- inhibition [7]: 28%

Compound: COc1ncc(Nc2ncc(-c3ccncn3)c(-c3ccco3)n2)cn1
- Ki [1]: 39 nM
- Ki [2]: > 2500 nM
- inhibition [3]: 25%
- Ki [4]: > 10000 nM
- inhibition [5]: 45%
- Ki [6]: > 1000 nM
- inhibition [7]: 32%

The remaining lines, values ahead:

- Ki [1]: 116 nM
- Ki [2]: > 2500 nM
- inhibition [3]: 21%
- Ki [4]: > 10000 nM
- inhibition [5]: 30%
- Ki [6]: > 1000 nM
- inhibition [7]: 18%
Compound: c1coc(-c2nc(Nc3cnccn3)ncc2-c2ccncn2)c1

- Ki [1]: 34 nM
- Ki [2]: > 2500 nM
- inhibition [3]: 24%
- Ki [4]: > 10000 nM
- inhibition [5]: 38%
- Ki [6]: > 1000 nM
- inhibition [7]: 35%
Compound: [O-][n+]1cccc(Nc2ncc(-c3ccncn3)c(-c3ccco3)n2)c1

- Ki [1]: 115 nM
- Ki [2]: > 2500 nM
- inhibition [3]: 21%
- Ki [4]: > 10000 nM
- inhibition [5]: 25%
- Ki [6]: > 1000 nM
- inhibition [7]: 29%
Compound: COc1ccc(Nc2ncc(-c3ccncn3)c(-c3ccco3)n2)cn1

- Ki [1]: 24 nM
- Ki [2]: > 2500 nM
- inhibition [3]: 29%
- IC50 [4]: 45 nM
- Ki [4]: > 10000 nM
- Ki [6]: > 1000 nM
- inhibition [7]: 42%
Compound: c1coc(-c2nc(Nc3cncnc3)ncc2-c2ccncn2)c1

- Ki [1]: 17 nM
- Ki [2]: > 2500 nM
- inhibition [3]: 40%
- Ki [4]: > 1000 nM
- inhibition [8]: 14%
- Ki [6]: > 1000 nM
- inhibition [7]: 36%
- IC50 [9]: 321 nM
- IC50 [10]: 349 nM
- IC50 [11]: 340 nM
- IC50 [12]: 640 nM
- Cmax [13]: 13 µM
- Cmax [14]: 11 µM
- Cmax [15]: 6 µM
- Tmax [16]: 18 min
- Tmax [17]: 18 min
- Tmax [18]: 78 min
- AUC [19]: 4 µM·h
- AUC [20]: 16 µM·h
- AUC [21]: 15 µM·h
- half-life [22]: 12 min
- half-life [23]: 48 min
- MRT [24]: 84 min
- MRT [25]: 108 min
- MRT [26]: 18 min
- MRT [27]: 42 min
- clearance [28]: 25 mL/min/kg
- clearance [29]: 28 mL/min/kg
- Vd [30]: 0.5 L/kg
- Vd [31]: 1.1 L/kg
- bioavailability [32]: 75%
- bioavailability [33]: 81%
- inhibition [34]: 5%
Compound: c1cncc(Nc2ncc(-c3ccncn3)c(-c3ccco3)n2)c1

Reference: ChEMBL document CHEMBL1143065, “Discovery and characterization of 4'-(2-furyl)-N-pyridin-3-yl-4,5'-bipyrimidin-2'-amine (LAS38096), a potent, selective, and efficacious A2B adenosine receptor antagonist” (J Med Chem, 2007)
